Experimental data reported in the CheMixHub viscosity set.

Experiment: xn = mol fraction of the nth substance listed

ClC(Cl)C(Cl)Cl + CCO
viscosity [mPa·s], 101.32 kPa
Details	x2 = 0.167	x2 = 0.3109	x2 = 0.4362	x2 = 0.5461	x2 = 0.6435	x2 = 0.7303	x2 = 0.8081	x2 = 0.8783	x2 = 0.942
303.15 K	1.369	1.324	1.257	1.21	1.166	1.12	1.095	1.047	1.026
313.15 K	1.24	1.16	1.107	1.049	1.007	0.965	0.934	0.903	0.868
323.15 K	1.121	1.068	0.961	0.91	0.869	0.819	0.795	0.787	0.732

COCCOCCOC + CCOC(=O)CCC(=O)OCC
viscosity [mPa·s], 101.33 kPa
Details	x1 = 0.1002	x1 = 0.2023	x1 = 0.3012	x1 = 0.4033	x1 = 0.5032	x1 = 0.6024	x1 = 0.7034	x1 = 0.801	x1 = 0.9025
298.15 K	2.198	2.009	1.843	1.681	1.535	1.412	1.296	1.187	1.077
303.15 K	1.951	1.792	1.65	1.513	1.386	1.283	1.184	1.086	0.994
308.15 K	1.737	1.599	1.476	1.355	1.251	1.163	1.082	0.997	0.92
313.15 K	1.559	1.438	1.33	1.229	1.139	1.061	0.989	0.919	0.852
318.15 K	1.406	1.299	1.206	1.115	1.034	0.969	0.908	0.849	0.792

COCCOCCOC + CCOC(=O)OCC
viscosity [mPa·s], 101.33 kPa
Details	298.15 K	308.15 K	318.15 K
x1 = 0.0487	0.761	0.669	0.572
x1 = 0.0871	0.774	0.674	0.593
x1 = 0.1367	0.787	0.68	0.6
x1 = 0.18	0.798	0.687	0.607
x1 = 0.2621	0.817	0.706	0.618
x1 = 0.306	0.828	0.713	0.626
x1 = 0.3935	0.849	0.731	0.64
x1 = 0.4303	0.857	0.739	0.652
x1 = 0.4835	0.87	0.747	0.656
x1 = 0.557	0.886	0.766	0.665
x1 = 0.6202	0.899	0.772	0.674
x1 = 0.6549	0.907	0.783	0.679
x1 = 0.7104	0.92	0.79	0.687
x1 = 0.7618	0.933	0.799	0.695
x1 = 0.8134	0.945	0.809	0.702
x1 = 0.8478	0.952	0.814	0.707
x1 = 0.938	0.97	0.825	0.719
x1 = 0.9718	0.979	0.832	0.725
x2 = 0.0073	0.987	0.837	0.727

CC=CC(=O)O + CCOC(C)=O
viscosity [mPa·s], 101 kPa
Details	x1 = 0.0495	x1 = 0.0995	x1 = 0.1509	x1 = 0.1971	x1 = 0.2463	x1 = 0.2605
298.15 K	0.4663	0.5094	0.5447	0.5907	0.6329	0.6467
303.15 K	0.4417	0.4788	0.5181	0.5583	0.5921	0.6093
313.15 K	0.4005	0.4309	0.4587	0.494	0.5254	0.5496
323.15 K	0.361	0.3895	0.413	0.4469	0.4704	0.4917

COCCOCCOC + CCOC(C)=O
viscosity [mPa·s], 101.33 kPa
Details	x1 = 0.1016	x1 = 0.2005	x1 = 0.3016	x1 = 0.4007	x1 = 0.4999	x1 = 0.6005	x1 = 0.6994	x1 = 0.8013	x1 = 0.8999
298.15 K	0.477	0.527	0.579	0.633	0.69	0.748	0.815	0.867	0.92
303.15 K	0.451	0.497	0.546	0.594	0.645	0.698	0.75	0.807	0.854
308.15 K	0.428	0.469	0.513	0.558	0.604	0.653	0.706	0.748	0.794
313.15 K	0.406	0.445	0.485	0.526	0.569	0.612	0.659	0.7	0.74
318.15 K	0.385	0.421	0.459	0.496	0.535	0.575	0.616	0.653	0.689

ClC(Cl)C(Cl)Cl + CCOC(C)=O
303.15 K, 101.3 kPa
Details	viscosity [mPa·s]
x2 = 0.15	1.358
x2 = 0.2009	1.306
x2 = 0.3141	1.18
x2 = 0.3963	1.08
x2 = 0.4968	0.9507
x2 = 0.5996	0.8225
x2 = 0.7128	0.6857
x2 = 0.8056	0.5773
x2 = 0.9246	0.4625

CCCCCCN + CCOCCO
308.15 K, 101 kPa
Details	viscosity [mPa·s]
x2 = 0.1321	0.7283
x2 = 0.255	0.8766
x2 = 0.3698	1.026
x2 = 0.4772	1.172
x2 = 0.5779	1.305
x2 = 0.6726	1.426
x2 = 0.7616	1.469
x2 = 0.8456	1.457
x2 = 0.9249	1.445

Oc1ccccc1 + CN(C)c1ccccc1
viscosity [mPa·s], 101 kPa
Details	293.15 K	302.95 K	313.35 K
x1 = 0.0998	–	1.351	1.159
x1 = 0.114	1.684	–	–
x1 = 0.2041	–	1.629	1.354
x1 = 0.2122	2.045	–	–
x1 = 0.2884	2.415	–	–
x1 = 0.2958	–	1.936	1.57
x1 = 0.385	–	2.315	1.84
x1 = 0.3889	3.085	–	–
x1 = 0.4659	3.77	–	–
x1 = 0.477	–	2.83	2.185
x1 = 0.5458	4.7	–	–
x1 = 0.5549	–	3.33	2.51
x1 = 0.6187	5.64	–	–
x1 = 0.6224	–	3.93	2.855
x1 = 0.6851	6.75	–	–
x1 = 0.6955	–	4.705	3.34
x1 = 0.75	8.01	–	–
x1 = 0.7591	–	5.325	3.715
x1 = 0.8215	9.4	–	–
x1 = 0.8274	–	6.025	4.15
x1 = 0.8827	10.3	–	–
x1 = 0.8884	–	6.48	4.4
x1 = 0.9428	10.87	–	–
x1 = 0.9463	–	6.86	4.59

CC[P+](c1ccccc1)(c1ccccc1)c1ccccc1.[Br-] + CN(CCO)CCO
viscosity [mPa·s], 100 kPa
Details	293.15 K	303.15 K	313.15 K	323.15 K
x1 = 0.05673	152.7	81.77	47.16	29.08
x1 = 0.08776	192.3	100.3	56.67	34.34
x1 = 0.1208	238	121	66.81	39.76

ClC(Cl)C(Cl)Cl + CNc1ccccc1
303 K, 101.33 kPa
Details	viscosity [mPa·s]
x2 = 0.1012	1.439
x2 = 0.1991	1.49
x2 = 0.3016	1.541
x2 = 0.4007	1.59
x2 = 0.5004	1.633
x2 = 0.6007	1.66
x2 = 0.7017	1.686
x2 = 0.7992	1.707
x2 = 0.9013	1.73

CCCO + CO
Details	viscosity [mPa·s]
293.15 K, 101 kPa, x2 = 0.25	1.379
293.15 K, 101 kPa, x2 = 0.5	1.015
293.15 K, 101 kPa, x2 = 0.75	0.825
293.15 K, 101.3 kPa, x2 = 0.174	1.78
293.15 K, 101.3 kPa, x2 = 0.339	1.45
293.15 K, 101.3 kPa, x2 = 0.51	1.16
293.15 K, 101.3 kPa, x2 = 0.741	0.857
293.15 K, 101.3 kPa, x2 = 0.873	0.711
298.15 K, 101 kPa, x2 = 0.25	1.243
298.15 K, 101 kPa, x2 = 0.5	0.931
298.15 K, 101 kPa, x2 = 0.75	0.775
298.15 K, 101.33 kPa, x2 = 0.1414	1.672
298.15 K, 101.33 kPa, x2 = 0.2419	1.483
298.15 K, 101.33 kPa, x2 = 0.3419	1.315
298.15 K, 101.33 kPa, x2 = 0.4462	1.159
298.15 K, 101.33 kPa, x2 = 0.5137	1.067
298.15 K, 101.33 kPa, x2 = 0.5731	0.992
298.15 K, 101.33 kPa, x2 = 0.7216	0.825
298.15 K, 101.33 kPa, x2 = 0.8038	0.744
298.15 K, 101.33 kPa, x2 = 0.8805	0.662
303.15 K, 101 kPa, x2 = 0.25	1.128
303.15 K, 101 kPa, x2 = 0.5	0.856
303.15 K, 101 kPa, x2 = 0.75	0.717
308.15 K, 101 kPa, x2 = 0.25	1.028
308.15 K, 101 kPa, x2 = 0.5	0.788
308.15 K, 101 kPa, x2 = 0.75	0.663
313.15 K, 101 kPa, x2 = 0.25	0.938
313.15 K, 101 kPa, x2 = 0.5	0.728
313.15 K, 101 kPa, x2 = 0.75	0.615
313.15 K, 101.3 kPa, x2 = 0.174	1.17
313.15 K, 101.3 kPa, x2 = 0.339	0.986
313.15 K, 101.3 kPa, x2 = 0.51	0.822
313.15 K, 101.3 kPa, x2 = 0.741	0.624
313.15 K, 101.3 kPa, x2 = 0.873	0.53
318.15 K, 101 kPa, x2 = 0.25	0.859
318.15 K, 101 kPa, x2 = 0.5	0.673
318.15 K, 101 kPa, x2 = 0.75	0.571
323.15 K, 101 kPa, x2 = 0.25	0.787
323.15 K, 101 kPa, x2 = 0.5	0.623
323.15 K, 101 kPa, x2 = 0.75	0.531

COCCOCCOC + CO
viscosity [mPa·s], 100 kPa
Details	293.15 K	298.15 K	303.15 K
x2 = 0.056	1.064	0.984	0.903
x2 = 0.1076	1.05	0.97	0.89
x2 = 0.202	1.015	0.94	0.863
x2 = 0.2929	0.99	0.916	0.84
x2 = 0.3965	0.951	0.882	0.808
x2 = 0.4979	0.909	0.843	0.775
x2 = 0.5993	0.863	0.8	0.735
x2 = 0.6891	0.814	0.756	0.693
x2 = 0.7967	0.747	0.697	0.641
x2 = 0.8412	0.718	0.669	0.615
x2 = 0.8996	0.674	0.629	0.578
x2 = 0.948	0.637	0.595	0.546
